These results are taken from patent publication US20060030730A1, “Purification and production methods of 1-aminocyclopropanecarboxylic acid” (Daicel Chemical Industries, Ltd., priority 2004, published 2006).

Molecules are shown by their SMILES.

This data set in a line: Solubility of 1-aminocyclopropanecarboxylic acid in solvents. Format: physicochemical.

Turning to `NC1(C(=O)O)CC1` [1-aminocyclopropanecarboxylic acid], under “solvent methanol”, the solubility in methanol entry is recorded as “about 1.0 % (wt/wt)”. In addition, the “solubility in organic acid having one to five carbon atoms” value (solvent: organic acid having one to five carbon atoms (e.g. acetic acid)) is “highly soluble”.
